# Laboratory results reported in the supplement of paper PMC10307832.
# Compound: COc1cc2nc(N3CCCN(C)CC3)nc(NC3CCN(Cc4ccccc4)CC3)c2cc1OC + O=C(c1cc(Cc2n[nH]c(=O)c3ccccc23)ccc1F)N1CCN(C(=O)C2CC2)CC1 [Olaparib] (partner 8 µM)
# Assay: relative viability (nuclei count vs DMSO), 5 days (fraction); higher = more cells survive
# Details: first compound 0.2 µM
# Outline: (§1)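 Lung cancer cell lines, seeded in 1536-well plates, were treated the following day by pin tool with a single drug or with five library-drug doses (not always all listed) in √10 steps on top of a fixed anchor-drug dose. Cells were fixed and nuclei stained in one step after 5 days, and nuclei were counted. Relative viability is the nuclei count for treated wells divided by that for vehicle wells, reported as medians of duplicate plates.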
row,Cell Line,relative viability
1,LU99A,0.287
2,BEN,1.01
3,HARA,0.79
4,HCC-78,0.944
5,NCI-H322M,0.763
6,LCLC-97TM1,0.488
7,A-427,0.708
8,NCI-H441,0.566
9,NCI-H1734,0.61
10,NCI-H460,0.425
11,NCI-H2347,0.563
12,NCI-H1395,0.444
13,201T,0.849
14,NCI-H1915,0.243
15,HCC-827,0.753
16,LXF-289,1.03

# Same assay, conditions: first compound 0.6325 µM
row,Cell Line,relative viability
1,LU99A,0.215
2,BEN,1.07
3,HARA,1.1
4,HCC-78,0.66
5,NCI-H322M,0.782
6,LCLC-97TM1,0.312
7,A-427,0.705
8,NCI-H441,0.495
9,NCI-H1734,0.533
10,NCI-H460,0.397
11,NCI-H2347,0.532
12,NCI-H1395,0.473
13,201T,0.853
14,NCI-H1915,0.267
15,HCC-827,0.626
16,LXF-289,1.07

# Same assay, conditions: first compound 2 µM
row,Cell Line,relative viability
1,LU99A,0.249
2,BEN,1.12
3,HARA,0.832
4,HCC-78,0.787
5,NCI-H322M,0.771
6,LCLC-97TM1,0.48
7,A-427,0.833
8,NCI-H441,0.691
9,NCI-H1734,0.645
10,NCI-H460,0.37
11,NCI-H2347,0.535
12,NCI-H1395,0.445
13,201T,0.875
14,NCI-H1915,0.272
15,HCC-827,0.685
16,LXF-289,1.12

# Same assay, conditions: first compound 6.325 µM
row,Cell Line,relative viability
1,LU99A,0.287
2,BEN,1.07
3,HARA,1.05
4,HCC-78,0.831
5,NCI-H322M,0.688
6,LCLC-97TM1,0.63
7,A-427,0.768
8,NCI-H441,0.551
9,NCI-H1734,0.594
10,NCI-H460,0.323
11,NCI-H2347,0.521
12,NCI-H1395,0.433
13,201T,0.802
14,NCI-H1915,0.251
15,HCC-827,0.622
16,LXF-289,1.05

# Compound: Cc1cc([C@@H](C)Nc2ccccc2C(=O)O)c2nc(N3CCOCC3)cc(=O)n2c1 [AZD6482] + CS(=O)(=O)N1CCN(Cc2cc3nc(-c4cccc5[nH]ncc45)nc(N4CCOCC4)c3s2)CC1 [Pictilisib] (partner 1 µM)
# Assay: as above
# Details: first compound 0.08 µM
# Outline: as §1
row,Cell Line,relative viability
1,LU99A,0.339
2,BEN,0.607
3,HARA,0.254
4,HCC-78,0.218
5,NCI-H322M,0.485
6,LCLC-97TM1,0.246
7,A-427,0.655
8,NCI-H441,0.453
9,NCI-H1734,0.395
10,NCI-H460,0.332
11,NCI-H1395,0.549
12,201T,0.612
13,NCI-H1915,0.886
14,HCC-827,0.899
15,LXF-289,0.66

# Same assay, conditions: first compound 0.253 µM
row,Cell Line,relative viability
1,LU99A,0.335
2,BEN,0.506
3,HARA,0.395
4,HCC-78,0.186
5,NCI-H322M,0.399
6,LCLC-97TM1,0.175
7,A-427,0.697
8,NCI-H441,0.389
9,NCI-H1734,0.452
10,NCI-H460,0.336
11,NCI-H2347,0.75
12,NCI-H1395,0.459
13,201T,0.672
14,NCI-H1915,0.916
15,HCC-827,0.814
16,LXF-289,0.736

# Same assay, conditions: first compound 0.8 µM
row,Cell Line,relative viability
1,LU99A,0.366
2,BEN,0.655
3,HARA,0.423
4,HCC-78,0.184
5,NCI-H322M,0.475
6,LCLC-97TM1,0.245
7,A-427,0.735
8,NCI-H441,0.408
9,NCI-H1734,0.485
10,NCI-H460,0.379
11,NCI-H2347,0.559
12,NCI-H1395,0.536
13,201T,0.66
14,NCI-H1915,1.03
15,HCC-827,0.848
16,LXF-289,0.739

# Same assay, conditions: first compound 2.53 µM
row,Cell Line,relative viability
1,LU99A,0.25
2,BEN,0.434
3,HCC-78,0.182
4,NCI-H322M,0.353
5,LCLC-97TM1,0.176
6,A-427,0.601
7,NCI-H441,0.32
8,NCI-H1734,0.305
9,NCI-H460,0.249
10,NCI-H2347,0.393
11,NCI-H1395,0.422
12,201T,0.506
13,NCI-H1915,0.79
14,HCC-827,0.636
15,LXF-289,0.638

# Same assay, conditions: first compound 8 µM
row,Cell Line,relative viability
1,LU99A,0.34
2,BEN,0.557
3,HARA,0.59
4,HCC-78,0.214
5,NCI-H322M,0.498
6,LCLC-97TM1,0.146
7,A-427,0.682
8,NCI-H441,0.431
9,NCI-H1734,0.408
10,NCI-H460,0.331
11,NCI-H2347,0.421
12,NCI-H1395,0.438
13,201T,0.619
14,NCI-H1915,0.909
15,HCC-827,0.628
16,LXF-289,0.745

# Compound: Cc1cc([C@@H](C)Nc2ccccc2C(=O)O)c2nc(N3CCOCC3)cc(=O)n2c1 [AZD6482] + NC(=O)Nc1cc(-c2cccc(F)c2)sc1C(=O)N[C@H]1CCCNC1 [AZD7762] (partner 0.2 µM)
# Assay: as above
# Details: first compound 0.08 µM
# Outline: as §1
row,Cell Line,relative viability
1,LU99A,0.338
2,BEN,0.664
3,HARA,0.424
4,HCC-78,0.671
5,NCI-H322M,0.647
6,LCLC-97TM1,0.344
7,A-427,0.645
8,NCI-H441,1.02
9,NCI-H1734,0.533
10,NCI-H460,0.618
11,NCI-H2347,0.502
12,NCI-H1395,0.393
13,201T,0.739
14,NCI-H1915,0.672
15,HCC-827,0.351
16,LXF-289,1.11

# Same assay, conditions: first compound 0.253 µM
row,Cell Line,relative viability
1,LU99A,0.356
2,BEN,0.68
3,HARA,0.338
4,HCC-78,0.388
5,NCI-H322M,0.623
6,LCLC-97TM1,0.157
7,A-427,0.804
8,NCI-H441,1.18
9,NCI-H1734,0.504
10,NCI-H460,0.674
11,NCI-H2347,0.464
12,NCI-H1395,0.393
13,201T,0.669
14,NCI-H1915,0.538
15,HCC-827,0.184
16,LXF-289,1.13

# Same assay, conditions: first compound 0.8 µM
row,Cell Line,relative viability
1,LU99A,0.254
2,BEN,0.779
3,HARA,0.269
4,HCC-78,0.57
5,NCI-H322M,0.587
6,LCLC-97TM1,0.442
7,A-427,0.684
8,NCI-H441,1.36
9,NCI-H1734,0.556
10,NCI-H460,0.791
11,NCI-H2347,0.332
12,NCI-H1395,0.44
13,201T,0.615
14,NCI-H1915,0.669
15,HCC-827,0.162
16,LXF-289,1.26

# Same assay, conditions: first compound 2.53 µM
row,Cell Line,relative viability
1,LU99A,0.317
2,BEN,0.457
3,HARA,0.224
4,HCC-78,0.327
5,NCI-H322M,0.421
6,A-427,0.451
7,NCI-H1734,0.303
8,NCI-H460,0.459
9,NCI-H2347,0.32
10,NCI-H1395,0.405
11,201T,0.611
12,NCI-H1915,0.631
13,HCC-827,0.131
14,LXF-289,0.982

# Same assay, conditions: first compound 8 µM
row,Cell Line,relative viability
1,LU99A,0.344
2,BEN,0.646
3,HARA,0.516
4,HCC-78,0.409
5,NCI-H322M,0.405
6,LCLC-97TM1,0.299
7,A-427,0.627
8,NCI-H441,1.19
9,NCI-H1734,0.367
10,NCI-H460,0.568
11,NCI-H2347,0.373
12,NCI-H1395,0.411
13,201T,0.565
14,NCI-H1915,0.639
15,HCC-827,0.137
16,LXF-289,0.956

# Compound: Cc1cc([C@@H](C)Nc2ccccc2C(=O)O)c2nc(N3CCOCC3)cc(=O)n2c1 [AZD6482] + Nc1ncn([C@H]2C[C@H](O)[C@@H](CO)O2)c(=O)n1 [Decitabine] (partner 2 µM)
# Assay: as above
# Details: first compound 0.08 µM
# Outline: as §1
row,Cell Line,relative viability
1,LU99A,0.803
2,BEN,0.621
3,HARA,0.495
4,HCC-78,0.555
5,NCI-H322M,0.657
6,LCLC-97TM1,0.218
7,A-427,0.479
8,NCI-H441,0.254
9,NCI-H1734,0.508
10,NCI-H460,0.445
11,NCI-H2347,0.474
12,NCI-H1395,0.584
13,201T,0.855
14,NCI-H1915,0.278
15,HCC-827,0.341
16,LXF-289,0.356

# Same assay, conditions: first compound 0.253 µM
row,Cell Line,relative viability
1,LU99A,0.858
2,BEN,0.533
3,HARA,0.511
4,HCC-78,0.462
5,NCI-H322M,0.617
6,LCLC-97TM1,0.204
7,A-427,0.53
8,NCI-H441,0.198
9,NCI-H1734,0.476
10,NCI-H460,0.38
11,NCI-H2347,0.565
12,NCI-H1395,0.601
13,201T,0.763
14,NCI-H1915,0.255
15,HCC-827,0.301
16,LXF-289,0.422

# Same assay, conditions: first compound 0.8 µM
row,Cell Line,relative viability
1,LU99A,0.968
2,BEN,0.767
3,HARA,0.455
4,HCC-78,0.646
5,NCI-H322M,0.674
6,LCLC-97TM1,0.196
7,A-427,0.547
8,NCI-H441,0.295
9,NCI-H1734,0.463
10,NCI-H460,0.618
11,NCI-H2347,0.555
12,NCI-H1395,0.636
13,201T,0.844
14,NCI-H1915,0.263
15,HCC-827,0.342
16,LXF-289,0.36

# Same assay, conditions: first compound 2.53 µM
row,Cell Line,relative viability
1,LU99A,0.801
2,BEN,0.509
3,HARA,0.43
4,HCC-78,0.474
5,NCI-H322M,0.537
6,A-427,0.512
7,NCI-H1734,0.407
8,NCI-H460,0.452
9,NCI-H2347,0.52
10,NCI-H1395,0.496
11,201T,0.816
12,NCI-H1915,0.247
13,HCC-827,0.267
14,LXF-289,0.356

# Same assay, conditions: first compound 8 µM
row,Cell Line,relative viability
1,LU99A,0.775
2,BEN,0.581
3,HARA,0.602
4,HCC-78,0.442
5,NCI-H322M,0.603
6,LCLC-97TM1,0.213
7,A-427,0.483
8,NCI-H441,0.214
9,NCI-H1734,0.435
10,NCI-H460,0.395
11,NCI-H2347,0.449
12,NCI-H1395,0.489
13,201T,0.812
14,NCI-H1915,0.23
15,HCC-827,0.264
16,LXF-289,0.369
